According to patent US11465978B2, “Anthranilic amides and the use thereof” (THE ADMINISTRATORS OF THE TULANE EDUCATIONAL FUND, priority 2013, dated 2022):

What was measured:
MDA-MB 231 cells = assay: Crystal violet proliferation study; assay type: cell-based
Protocol: FIG. 11 is a graph showing the results of MDA-MB 231 proliferation studies. MDA-MB 231 cells were used as they express the triple negative cancer phenotype. Compound 3 was selected due to potency in inhibition of both MEK1/2 and MEK5. MDA-MB 231 cells were plated at 10,000 cells per well in a 96 well TC plate in 5% Charcoal-Dextran stripped media and incubated overnight at 37° C. in 5% CO2. The cells were treated with drug or vehicle the following day. Plates were harvested on days 3, 5 and 7 and stained with Crystal Violet. […] The cells were washed, lysed, and the absorbance of Crystal Violet sequestered in living cells was determined at […]. Wells were conducted in duplicate. Experiments were run in triplicate. Cells were normalized to initial cell count.
Proliferation studies were conducted using MDA-MB 231 cells, as they express the triple negative cancer phenotype. […] The cells were washed, lysed, and the absorbance of Crystal Violet sequestered in living cells was determined at […]. […]
Triple-negative breast cancer (TNBC) cells MDA-MB-231 were seeded in 96-well plates at a density of 2,000 cells per well in 5% charcoal-stripped phenol free DMEM, allowed to attach overnight, and subsequently treated with DMSO and MEK inhibitor compounds in duplicate. […] Cells were washed, lysed with 33% acetic acid, and the absorbance was read at 630 nm in a Biotek Synergy plate reader. […]

Mia-PaCa2 cells = assay: Crystal violet morphology of pancreatic cancer cells; assay type: cell-based; conditions: Mia-PaCa2, 3 days
Protocol: (A) Mia-PaCa2 cells were seeded in a 96-well plate at a density of 1,000 cells per well and treated with vehicle (DMSO) and SC-1-151. After 3 days, cells were fixed with glutaraldehyde and stained with crystal violet. (B) qPCR for EMT-regulating genes following SC-1-151 treatment. Pancreatic cancer cells were grown in 5% CS phenol free DMEM for 48 hours before treatment with vehicle (DMSO) or SC-1-151 (1 μM) for 24 hours. Cycle number was normalized to R-actin and vehicle-treated cells scaled to 1, n=3.

In the case of NC(=O)c1ccc(F)c(F)c1Nc1ccc(I)cc1F [Compound 3, 3,4-difluoro-2-((2-fluoro-4-iodophenyl)amino)benzamide], the “reduction in growth relative to untreated (DMSO)” value (MDA-MB 231 cells; 7 day time point) is reported as 70%, the overt cell death (MDA-MB 231 cells; even at saturation concentrations) is reported as “No overt cell death” and the “phenotype of pancreatic cancer cells” value (Mia-PaCa2 cells) is reported as “induces an epithelial phenotype”.
